Measured values reported in patent publication US20240140941A1, “DERIVATIVE OF 2,5-DIKETOPIPERAZINE COMPOUND, AND PREPARATION METHOD THEREFOR, PHARMACEUTICAL COMPOSITION THEREOF AND USE THEREOF” (DALIAN WZ PROBIOTICS AD HEALTH CO., LTD, priority 2020, published 2024).
Structures can show the parent of a compound that is named as a salt. Where two headings read alike, the source gives them in different places.

Experiments:
[1] = test system: HT-29; test: Inhibition test on cell proliferation (MTT), HT-29; format: cell-based, human; details: 72 hours of drug treatment
Procedure: (§1) Tumor cells (NCI-H460, BxPC-3, HT-29, HCC-LM3) in the logarithmic growth phase were digested, centrifuged, and the supernatants were removed. Cells were resuspended by adding fresh culture medium, and counted using a cell counting plate. 100 μL of culture medium (containing cells) was added to a 96-well plate according to the standard of 2000 to 6000 cells per well and incubated in an incubator (37° C., 5% CO2) for 24 hours. After the cells were completely adhered to the wall, the test sample and Plinabulin were diluted to different concentrations using fresh culture medium, and 4 wells were set for each concentration. After 72 hours of drug treatment, the culture medium was removed, and 20 μL of MTT at a concentration of 5 mg/mL was added to each well. After 3-4 hours in the incubator, the MTT was discarded, and 100 μL of DMSO was added to each well, and placed in a 96-well plate shaker to completely dissolve the purple formazan. Subsequently, the absorbance (OD value) was detected at a wavelength of 490 nm using a microplate reader. The experiment also required setting up zero-setting wells (blank culture medium, MTT, DMSO). Cell inhibition rate=1−(OD value of drug-dosed group−OD value of zero-setting group)/(OD value of blank group−OD value of zero-setting group)×100%.

[2] = test system: BxPC-3; test: Inhibition test on cell proliferation (MTT), BxPC-3; format: cell-based, human; details: read-out: IC50 (nM) BxPC-3
Summary of the method: (§2)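 Cells plated at 2000-6000 per well, allowed to adhere for 24 h, then exposed to serially diluted compound for 72 h at 37 °C, 5% CO2. Viability read by MTT reduction, with formazan dissolved in DMSO and absorbance taken at 490 nm. Inhibition rate calculated relative to untreated and zero-setting wells.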

[3] = test system: NCI-H460; test: Inhibition test on cell proliferation (MTT), NCI-H460; format: cell-based, human
Summary of the method: as §2

[4] = test system: HCC-LM3; test: Inhibition test on cell proliferation (MTT), HCC-LM3; format: cell-based, human; details: read-out: IC50 (nM) HCC-LM3
Procedure: as §1

[5] = Compound solubility experiment, Method 1: equilibrium solubility in pure water, LC-MS; format: physicochemical; details: ultrapure water, 37±1° C., shaken 24 hours
Procedure: Method 1: A 1.5 mL brown EP tube was taken, about 1 mg of compound was weighed respectively, and 1 mL of ultrapure water was added thereto. The mixture was vortexed, and sonicated until the compound was no longer dissolved (the solution was turbid or had suspended particles). The mixture was put into an incubation shaker, maintained at a temperature of (37±1° C.), shaken at 100 r/min for 24 hours, so as to achieve full dissolution equilibrium. After 24 hours, the supernatant was quickly filtered through a 0.45 μm microporous membrane, and the initial filtrate was discarded. 200 μL of the renewed filtrate was taken and diluted with 200 μL of methanol. The assay was repeated at least three times. According to the chromatographic conditions, the sample was injected by LC-MS, and the peak area was measured and the equilibrium solubility of each 2,5-diketopiperazine derivative in pure water was calculated.

[6] = Homo sapiens, BXPC-3, 72 h, 72 hours of drug treatment, MTT
[7] = Homo sapiens, NCI-H460, 72 h, 72 hours of drug treatment, MTT, read-out: IC50 (nM) NCI-H460
[8] = Homo sapiens, HCCLM3, 72 h, 72 hours of drug treatment, MTT
[9] = 72 hours of drug treatment, MTT

IC50 ([1]; Homo sapiens, HT-29, 72 h) [nM] | IC50 [2, 6] [nM] | IC50 [3, 7] [nM] | melting point [°C] | IC50 [4, 8] [nM] | SMILES | also measured
9.03 ± 0.29 | 13.9 ± 3.21 | 21.7 ± 3.04 | 178 to 180 | 7.49 ± 0.12 | Cc1cccc(/C=c2\[nH]c(=O)/c(=C/c3ncn(CCCN4CCOCC4)c3C(C)C)[nH]c2=O)c1 [PLN-2-51, (3Z,6Z)-3-(3-Methylphenyl)methylene-6-((5-isopropyl-1-(3-morpholinyl)propylimidazol-4-yl)methylene)piperazine-2,5-dione] | –
– | 8.56 ± 0.01 | 16.6 ± 4.94 | 211 to 213 | 13.9 ± 2.5 | CC(C)c1c(/C=c2\[nH]c(=O)/c(=C/c3cccc(F)c3)[nH]c2=O)ncn1CCCN1CCO[C@@H](C)C1 [PLN-2-57, (3Z,6Z)-3-(3-Fluorophenyl)methylene-6-(5-isopropyl-1-(3-((S)-2-methylmorpholinyl)propylimidazol-4-yl)methylene)piperazine-2,5-dione] | IC50 [1]: 5.07 ± 2.12 nM
– | 8.1 ± 1.44 | 11.8 ± 1.82 | 202 to 204 | 16.7 ± 0.98 | CCOCC1CN(CCCn2cnc(/C=c3\[nH]c(=O)/c(=C/c4cccc(F)c4)[nH]c3=O)c2C(C)C)CCO1 (stereo not drawn) [PLN-2-58, (3Z,6Z)-3-(3-Fluorophenyl)methylene-6-(5-isopropyl-1-(3-(2-(ethoxymethyl)morpholinyl)propylimidazol-4-yl)methylene)piperazine-2,5-dione] | –
37.1 ± 3.15 | 23 ± 1.56 | 41.3 ± 1.25 | 164 to 166 | 20.8 ± 2.56 | Cc1cccc(/C=c2\[nH]c(=O)/c(=C/c3ncn(CCCN4CCOCC4)c3C(C)C)[nH]c2=O)c1C [PLN-2-50, (3Z,6Z)-3-(2,3-Dimethylphenyl)methylene-6-((5-isopropyl-1-(3-morpholinyl)propylimidazol-4-yl)methylene)piperazine-2,5-dione] | –
– | 15.5 ± 0.74 | 27.4 ± 0.52 | 178 to 180 | 23.3 ± 2.49 | CCCOCC1CN(CCCn2cnc(/C=c3\[nH]c(=O)/c(=C/c4cccc(F)c4)[nH]c3=O)c2C(C)C)CCO1 (stereo not drawn) [PLN-2-59, (3Z,6Z)-3-(3-fluorophenyl)methylene-6-(5-isopropyl-1-(3-(2-(propoxymethyl)morpholinyl)propylimidazol-4-yl)methylene)piperazine-2,5-dione] | –
– | – | – | 220 to 222 | – | CC(C)c1c(/C=c2\[nH]c(=O)/c(=C/c3ccccc3)[nH]c2=O)ncn1CCCN1CCOCC1 (as salt: hydrochloride) [PLN-2-5-1, (3Z,6Z)-3-Benzylidene-6-((5-isopropyl-1-(3-morpholinyl)propylimidazol-4-yl)methylene)piperazine-2,5-dione, hydrochloride] | –
2.62 ± 0.91 | 3.24 ± 0.73 | 5.59 ± 1.4 | 212 to 214 | 4.26 ± 0.25 | CC(C)c1c(/C=c2\[nH]c(=O)/c(=C/c3cccc(F)c3)[nH]c2=O)ncn1CCCN1CCO[C@H](C)C1 [PLN-2-56, (3Z,6Z)-3-(3-Fluorophenyl)methylene-6-(5-isopropyl-1-(3-((R)-2-methylmorpholinyl)propylimidazol-4-yl)methylene)piperazine-2,5-dione] | –
– | – | 99.72 ± 0.82 | 176 to 178 | – | CC(C)c1c(/C=c2\[nH]c(=O)/c(=C/c3cccc(Oc4ccc(F)cc4)c3)[nH]c2=O)ncn1CCCN1CCNCC1 [PLN-2-18] | –
– | – | – | – | – | CC(C)(C)c1[nH]cnc1/C=c1\[nH]c(=O)/c(=C/c2ccccc2)[nH]c1=O [Plinabulin hydrochloride, reference compound] | Solubility [5]: 7.654 µg/mL
– | – | – | 232.2 to 234.2 | – | CC(C)c1c(/C=c2\[nH]c(=O)/c(=C/c3cccc(F)c3)[nH]c2=O)ncn1CCCN1CCO[C@@H](C)C1 (as salt: hydrochloride) [PLN-2-57-1, (3Z,6Z)-3-(3-Fluorophenyl)methylene-6-(5-isopropyl-1-(3-S)—(−2-methylmorpholinyl)propylimidazol-4-yl)methylene)piperazine-2,5-dione, hydrochloride] | –
6.55 ± 0.33 | 5.74 ± 2.19 | 8.28 ± 0.91 | 248 to 250 | 3.48 ± 2.6 | CC(C)c1c(/C=c2\[nH]c(=O)/c(=C/c3cccc4ccccc34)[nH]c2=O)ncn1CCCN1CCOCC1 [PLN-2-54, (3Z,6Z)-3-(1-Naphthalenyl)methylene-6-((5-isopropyl-1-(3-morpholinyl)propylimidazol-4-yl)methylene)piperazine-2,5-dione] | –
8.49 ± 0.54 | 13.9 ± 0.89 | 16.5 ± 3.48 | 184 to 186 | 7.54 ± 0.68 | COc1cccc(/C=c2\[nH]c(=O)/c(=C/c3ncn(CCCN4CCOCC4)c3C(C)C)[nH]c2=O)c1 [PLN-2-52, (3Z,6Z)-3-(3-Methoxyphenyl)methylene-6-((5-isopropyl-1-(3-morpholinyl)propylimidazol-4-yl)methylene)piperazine-2,5-dione] | –
14.1 ± 0.22 | 8 ± 1.15 | 19.6 ± 2.15 | 182 to 184 | 31.2 ± 6.92 | C=CC(=O)N1CCN(CCCn2cnc(/C=c3\[nH]c(=O)/c(=C/c4cccc(F)c4)[nH]c3=O)c2C(C)C)CC1 [PLN-2-61, (3Z,6Z)-3-(3-Fluorophenyl)methylene-6-(5-isopropyl-1-(3-(4-(acryloyl)piperazinyl)propylimidazol-4-yl)methylene)piperazine-2,5-dione] | –
– | – | – | 174 to 176 | – | CC(C)c1c(/C=c2\[nH]c(=O)/c(=C/c3cc(F)ccc3F)[nH]c2=O)ncn1CCCN1CCOCC1 (as salt: hydrochloride) [PLN-2-7-1, (3Z,6Z)-3-(2,5-Difluorophenyl)methylene-6-((5-isopropyl-1-(3-morpholinyl)propylimidazol-4-yl)methylene)piperazine-2,5-dione, hydrochloride] | –
– | – | – | 173 to 175 | – | CC(C)c1c(/C=c2\[nH]c(=O)/c(=C/c3cccc(Oc4ccc(F)cc4)c3)[nH]c2=O)ncn1CCCN1CCOCC1 (as salt: hydrochloride) [PLN-2-2-1] | –
35.2 ± 2.15 | 27.3 ± 2.75 | 33.7 ± 0.7 | 169 to 171 | 18.4 ± 1.42 | Cc1ccccc1/C=c1\[nH]c(=O)/c(=C/c2ncn(CCCN3CCOCC3)c2C(C)C)[nH]c1=O [PLN-2-49, (3Z,6Z)-3-(2-Methylphenyl)methylene-6-((5-isopropyl-1-(3-morpholinyl)propylimidazol-4-yl)methylene)piperazine-2,5-dione] | –
9.71 ± 0.74 | 7.17 ± 0.52 | 11.6 ± 1.11 | 251 to 253 | 6.55 ± 1.39 | CC(C)c1c(/C=c2\[nH]c(=O)/c(=C/c3cccc(OC(F)(F)F)c3)[nH]c2=O)ncn1CCCN1CCOCC1 [PLN-2-53, (3Z,6Z)-3-(3-Tifluoromethoxyphenyl)methylene-6-((5-isopropyl-1-(3-morpholinyl)propylimidazol-4-yl)methylene)piperazine-2,5-dione] | –
– | – | – | 238.6 to 240.6 | – | C=CC(=O)N1CCN(CCCn2cnc(/C=c3\[nH]c(=O)/c(=C/c4cccc(F)c4)[nH]c3=O)c2C(C)C)CC1 [PLN-2-61-1] | IC50 [1]: 14 ± 0.58 nM; IC50 [2, 9]: 9.37 ± 0.78 nM; IC50 ([3]; 72 hours of drug treatment, MTT, read-out: IC50 (nM) NCI-H460): 16.9 ± 1.29 nM; IC50 [4, 9]: 16.5 ± 5.66 nM

SMILES | IC50 ([1]; Homo sapiens, HT-29, 72 h) [nM] | IC50 [2, 6] [nM] | IC50 [3, 7] [nM] | melting point [°C] | IC50 [4, 8] [nM] | also measured
CC(C)c1c(/C=c2\[nH]c(=O)/c(=C/c3cccc(F)c3)[nH]c2=O)ncn1CCCN1CCOC(COCc2ccccc2)C1 (stereo not drawn) [PLN-2-60, (3Z,6Z)-3-(3-Fluorophenyl)methylene-6-(5-isopropyl-1-(3-(2-(benzyloxymethyl)morpholinyl)propylimidazol-4-yl)methylene)piperazine-2,5-dione] | – | – | – | 157 to 159 | – | IC50 ([2]; Homo sapiens, BXPC-3, 72 h): 27.2 ± 1.42 nM; IC50 ([3]; Homo sapiens, NCI-H460, 72 h, read-out: IC50 (nM) NCI-H460, 72 hours of drug treatment, MTT): 59.67 ± 0.3 nM; IC50 ([4]; Homo sapiens, HCCLM3, 72 h): 49.2 ± 1.3 nM
